Experimental data taken from BindingDB's records for doi:10.1016/j.bmc.2019.05.024 (Charles University, 2019).

Experiment: Inhibition of influenza A virus chicken/Nakorn-Patom/Thailand/CU-K2-2004 Neuraminidase N1 at pH 7.4 by DIANA assay

Structure (SMILES)	Ki
CCC(CC)O[C@@H]1C=C(C(=O)O)C[C@H](NCc2cn(CC(C)(CO)CO)nn2)[C@H]1NC(C)=O	0.71 µM
CCC(CC)O[C@@H]1C=C(C(=O)O)C[C@H](n2cc(CNc3ccc(C(N)=O)c(C(F)(F)F)c3)nn2)[C@H]1NC(C)=O	5 µM
CCC(CC)O[C@@H]1C=C(C(=O)O)C[C@H](NCc2cn(CCN3CCS(=O)(=O)CC3)nn2)[C@H]1NC(C)=O	6.2 µM
CCC(CC)O[C@@H]1C=C(C(=O)O)C[C@H](NCc2cn(CC(=O)O)nn2)[C@H]1NC(C)=O	4.3 µM
CCC(CC)O[C@@H]1C=C(C(=O)O)C[C@H](NCc2cn(CC(=O)NC)nn2)[C@H]1NC(C)=O	0.74 µM
CCC(CC)O[C@@H]1C=C(C(=O)O)C[C@H](NCc2cn(CCO)nn2)[C@H]1NC(C)=O	0.47 µM
CCC(CC)O[C@@H]1C=C(C(=O)O)C[C@H](n2cc(C[C@H](N)C(=O)O)nn2)[C@H]1NC(C)=O	25 µM
CCC(CC)O[C@@H]1C=C(C(=O)O)C[C@H](n2cc(-c3ccsc3)nn2)[C@H]1NC(C)=O	4 µM
CCC(CC)O[C@@H]1C=C(C(=O)O)C[C@H](n2cc(CNc3ccccc3C(N)=O)nn2)[C@H]1NC(C)=O	5.1 µM
CCC(CC)O[C@@H]1C=C(C(=O)O)C[C@H](n2cc(CNc3cccc(C(F)(F)F)c3)nn2)[C@H]1NC(C)=O	1.9 µM
CCC(CC)O[C@@H]1C=C(C(=O)O)C[C@H](n2cc(CNc3ccccc3)nn2)[C@H]1NC(C)=O	5 µM
CCC(CC)O[C@@H]1C=C(C(=O)O)C[C@H](n2cc(CO)nn2)[C@H]1NC(C)=O	5.3 µM
CCC(CC)O[C@@H]1C=C(C(=O)O)C[C@H](n2cc(CNc3ccc(NC(C)=O)cc3)nn2)[C@H]1NC(C)=O	5.6 µM
CCC(CC)O[C@@H]1C=C(C(=O)O)C[C@H](NCc2cn(CC(=O)N(C)C)nn2)[C@H]1NC(C)=O	3.1 µM
CCC(CC)O[C@@H]1C=C(C(=O)O)C[C@H](n2cc(-c3cccs3)nn2)[C@H]1NC(C)=O	7.1 µM
CCC(CC)O[C@@H]1C=C(C(=O)O)C[C@H](n2cc(CNc3cc(F)ccc3OC)nn2)[C@H]1NC(C)=O	11 µM
CCC(CC)O[C@@H]1C=C(C(=O)O)C[C@H](n2cc(COCC(C)(CO)CO)nn2)[C@H]1NC(C)=O	49 µM
CCC(CC)O[C@H]1CC(C(=O)O)=C[C@@H](n2cc(CN3CCS(=O)(=O)CC3)nn2)[C@@H]1NC(C)=O	94 µM
CCC(CC)O[C@@H]1C=C(C(=O)O)C[C@H](n2cc(CN(C)c3ccc(OC)cc3)nn2)[C@H]1NC(C)=O	8.1 µM
CCC(CC)O[C@@H]1C=C(C(=O)O)C[C@H](n2cc(C[C@@]3(C(=O)O)CCCN3)nn2)[C@H]1NC(C)=O	49 µM
